Consider two sequences from patent US11821903B2, “Sensor” (The University of Bristol, priority 2017, dated 2023).

The assay in a line: Binding of reporter dye prodan to the lumen of alpha helical barrels (fluorescence titration). The note with it: dissociation constant of prodan (1 μM) with alpha helical barrel 0.5-500 μM, up to 2 hours, fluorescent signal. As for the experimental part: The dyes 1,6-diphenyl-1,3,5-hexatriene (DPH) and 6-propionyl-2-dimethylaminonaphthalene (prodan) were assayed against a number of alpha helical barrels to determine their dissociation constants, KD. DPH or prodan (1 μM) was incubated with varying concentrations of alpha helical barrel (0.5-500 μM) for up to 2 hours, and the fluorescent signal measured at the corresponding emission wavelength.

A value given as a limit tells only on which side of the number the result lay.

By Kd is commonly meant the free concentration of one partner at which half of the binding sites on the other are occupied at equilibrium, for simple one-to-one binding. Low readings indicate higher affinity, high ones lower affinity. On to “GKIEQILQKIEKILQKIEWILQKIEQILQG [CC-Pent, forms alpha helical barrel with 5 helices]”, for which the Kd was > 500 µM and the “Prodan KD” value was “did not bind”.

Regarding “GELKAIAQELKAIAKELKAIAWELKAIAQG [CC-Hex, forms alpha helical barrel with 6 helices]”, the Kd was > 500 µM and the “Prodan KD” value is “did not bind”.
